Reference: PubChem BioAssay AID2060610 (Molecular Pharmacology Branch, DTP, NCI, 2025)
Where “and” joins values, the source holds several entries; their conditions need not be identical. Identical values can stand only once. Values belong to the compound of their own block, whether it stands above or below them.

Test system: 616215-338-R-J1-PDC complex spheroids, viability % test/control
Assay: Anticancer human tumor 616215-338-R-J1-PDC patient-derived colon adenocarcinoma cell line growth inhibition [CLK]
Settings: for viability, T/C: stronger effect = lower value
Procedure, shortened: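 Multi-cell-type spheroids combined patient-derived tumor cells with HUVEC endothelial cells and human mesenchymal stem cells. Paired agents were dosed in half-log steps down from about clinical Cmax, or from 10 microM where Cmax was unknown.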

[1] = curve of first compound, second compound 0.0316 µM
[2] = curve of first compound, second compound 0.1 µM
[3] = curve of first compound, second compound 0.316 µM
[4] = curve of first compound, second compound 1 µM
[5] = curve of first compound, second compound 3.16 µM
[6] = curve of first compound, second compound 10 µM
[7] = second compound 0.0316 µM, first compound 0.0316 µM
[8] = second compound 0.0316 µM, first compound 0.1 µM
[9] = second compound 0.0316 µM, first compound 0.316 µM
[10] = second compound 0.0316 µM, first compound 1 µM
[11] = second compound 0.0316 µM, first compound 3.16 µM
[12] = second compound 0.0316 µM, first compound 10 µM
[13] = second compound 0.1 µM, first compound 0.0316 µM
[14] = second compound 0.1 µM, first compound 0.1 µM
[15] = second compound 0.1 µM, first compound 0.316 µM
[16] = second compound 0.1 µM, first compound 1 µM
[17] = second compound 0.1 µM, first compound 3.16 µM
[18] = second compound 0.1 µM, first compound 10 µM
[19] = second compound 0.316 µM, first compound 0.0316 µM
[20] = second compound 0.316 µM, first compound 0.1 µM
[21] = second compound 0.316 µM, first compound 0.316 µM
[22] = second compound 0.316 µM, first compound 1 µM
[23] = second compound 0.316 µM, first compound 3.16 µM
[24] = second compound 0.316 µM, first compound 10 µM
[25] = second compound 1 µM, first compound 0.0316 µM
[26] = second compound 1 µM, first compound 0.1 µM
[27] = second compound 1 µM, first compound 0.316 µM
[28] = second compound 1 µM, first compound 1 µM
[29] = second compound 1 µM, first compound 3.16 µM
[30] = second compound 1 µM, first compound 10 µM
[31] = second compound 3.16 µM, first compound 0.0316 µM
[32] = second compound 3.16 µM, first compound 0.1 µM
[33] = second compound 3.16 µM, first compound 0.316 µM
[34] = second compound 3.16 µM, first compound 1 µM
[35] = second compound 3.16 µM, first compound 3.16 µM
[36] = second compound 3.16 µM, first compound 10 µM
[37] = second compound 10 µM, first compound 0.0316 µM
[38] = second compound 10 µM, first compound 0.1 µM
[39] = second compound 10 µM, first compound 0.316 µM
[40] = second compound 10 µM, first compound 1 µM
[41] = second compound 10 µM, first compound 3.16 µM
[42] = second compound 10 µM, first compound 10 µM
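Further: spheroids exposed to agents for 7 days.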
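Wherever viability, T/C is given: 100% = DMSO vehicle wells.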

SMILES: O=c1[nH]cc(F)c(=O)[nH]1 + CNC(=O)c1ccc(Nc2nc(OC3CCCC3)c3c(-c4ccc5nc(C)oc5c4)c[nH]c3n2)c(OC)c1
- IC50 [1]: 707 nM
- IC50 [2]: < 31.6 nM
- IC50 [3]: < 31.6 nM
- IC50 [4]: < 31.6 nM
- IC50 [5]: < 31.6 nM
- IC50 [6]: < 31.6 nM
- viability, T/C [7]: 96.7%
- viability, T/C [8]: 110%
- viability, T/C [9]: 60.2%
- viability, T/C [10]: 52.3%
- viability, T/C [11]: 43.1%
- viability, T/C [12]: 41.4%
- viability, T/C [13]: 47%
- viability, T/C [14]: 45.9%
- viability, T/C [15]: 35%
- viability, T/C [16]: 34.1%
- viability, T/C [17]: 40.9%
- viability, T/C [18]: 36.5%
- viability, T/C [19]: 41.6%
- viability, T/C [20]: 41.7%
- viability, T/C [21]: 33.6%
- viability, T/C [22]: 37.3%
- viability, T/C [23]: 36.6%
- viability, T/C [24]: 39.3%
- viability, T/C [25]: 43.4%
- viability, T/C [26]: 38%
- viability, T/C [27]: 36.3%
- viability, T/C [28]: 37.8%
- viability, T/C [29]: 38.2%
- viability, T/C [30]: 33.3%
- viability, T/C [31]: 42.3%
- viability, T/C [32]: 42.2%
- viability, T/C [33]: 38%
- viability, T/C [34]: 32.6%
- viability, T/C [35]: 36%
- viability, T/C [36]: 36.4%
- viability, T/C [37]: 51.1%
- viability, T/C [38]: 41.3%
- viability, T/C [39]: 41.8%
- viability, T/C [40]: 38.5%
- viability, T/C [41]: 37.1%
- viability, T/C [42]: 39.2%

SMILES: Cn1ncnc1[C@H]1c2n[nH]c(=O)c3cc(F)cc(c23)N[C@@H]1c1ccc(F)cc1 + CNC(=O)c1ccc(Nc2nc(OC3CCCC3)c3c(-c4ccc5nc(C)oc5c4)c[nH]c3n2)c(OC)c1
- IC50 [1]: > 100 nM
- IC50 [2]: < 0.316 nM
- IC50 [3]: < 0.316 nM
- IC50 [4]: < 0.316 nM
- IC50 [5]: < 0.316 nM
- IC50 [6]: < 0.316 nM
- viability, T/C (second compound 0.0316 µM, first compound 0.000316 µM): 97.2%
- viability, T/C (second compound 0.0316 µM, first compound 0.001 µM): 93.8%
- viability, T/C (second compound 0.0316 µM, first compound 0.00316 µM): 102%
- viability, T/C (second compound 0.0316 µM, first compound 0.01 µM): 102%
- viability, T/C [7]: 101%
- viability, T/C [8]: 108%
- viability, T/C (second compound 0.1 µM, first compound 0.000316 µM): 46.1%
- viability, T/C (second compound 0.1 µM, first compound 0.001 µM): 46.5%
- viability, T/C (second compound 0.1 µM, first compound 0.00316 µM): 47.9%
- viability, T/C (second compound 0.1 µM, first compound 0.01 µM): 54.5%
- viability, T/C [13]: 59.8%
- viability, T/C [14]: 49.6%
- viability, T/C (second compound 0.316 µM, first compound 0.000316 µM): 46.7%
- viability, T/C (second compound 0.316 µM, first compound 0.001 µM): 45.3%
- viability, T/C (second compound 0.316 µM, first compound 0.00316 µM): 40.5%
- viability, T/C (second compound 0.316 µM, first compound 0.01 µM): 45.1%
- viability, T/C [19]: 37.7%
- viability, T/C [20]: 51.3%
- viability, T/C (second compound 1 µM, first compound 0.000316 µM): 39.2%
- viability, T/C (second compound 1 µM, first compound 0.001 µM): 44.8%
- viability, T/C (second compound 1 µM, first compound 0.00316 µM): 41.9%
- viability, T/C (second compound 1 µM, first compound 0.01 µM): 48.1%
- viability, T/C [25]: 44.3%
- viability, T/C [26]: 56.3%
- viability, T/C (second compound 3.16 µM, first compound 0.000316 µM): 42.2%
- viability, T/C (second compound 3.16 µM, first compound 0.001 µM): 45.1%
- viability, T/C (second compound 3.16 µM, first compound 0.00316 µM): 45.5%
- viability, T/C (second compound 3.16 µM, first compound 0.01 µM): 42.9%
- viability, T/C [31]: 52%
- viability, T/C [32]: 50.9%
- viability, T/C (second compound 10 µM, first compound 0.000316 µM): 38.8%
- viability, T/C (second compound 10 µM, first compound 0.001 µM): 43.6%
- viability, T/C (second compound 10 µM, first compound 0.00316 µM): 50.2%
- viability, T/C (second compound 10 µM, first compound 0.01 µM): 50.1%
- viability, T/C [37]: 54.9%
- viability, T/C [38]: 47.2%

SMILES: C=CC(=O)N1CCN(c2nc(=O)n(-c3c(C)ccnc3C(C)C)c3nc(-c4c(O)cccc4F)c(F)cc23)C(C)C1 (centres undefined)
- viability, T/C (compound 0.0316 µM): 95.4% and 104%
- viability, T/C (compound 0.1 µM): 101% and 108%
- viability, T/C (compound 0.316 µM): 106% and 119%
- viability, T/C (compound 1 µM): 112% and 98.6%
- viability, T/C (compound 3.16 µM): 108% and 110%
- viability, T/C (compound 10 µM): 106% and 113%
- IC50 (curve of compound): > 10000 nM

SMILES: Nc1ccn(C2OC(CO)C(O)C2(F)F)c(=O)n1 (centres undefined)
- viability, T/C (compound 0.0316 µM): 13.9% and 20.9%
- viability, T/C (compound 0.1 µM): 11.6% and 15.4%
- viability, T/C (compound 0.316 µM): 9.93% and 15.4%
- viability, T/C (compound 1 µM): 13.5% and 17%
- viability, T/C (compound 3.16 µM): 9.75% and 16.1%
- viability, T/C (compound 10 µM): 11.3% and 14.7%
- IC50 (curve of compound): < 31.6 nM

SMILES: Nc1ccccc1NC(=O)c1ccc(CNC(=O)OCc2cccnc2)cc1 + CN1CCN(c2cc(C(=O)Nc3cc4cc(-c5cnn(C)c5)ccc4cn3)ccn2)CC1
- IC50 [1]: 4240 nM
- IC50 [2]: 2540 nM
- IC50 [3]: < 31.6 nM
- IC50 [4]: < 31.6 nM
- IC50 [5]: < 31.6 nM
- IC50 [6]: < 31.6 nM
- viability, T/C [7]: 95%
- viability, T/C [8]: 95.3%
- viability, T/C [9]: 110%
- viability, T/C [10]: 118%
- viability, T/C [11]: 62.7%
- viability, T/C [12]: 12.6%
- viability, T/C [13]: 110%
- viability, T/C [14]: 123%
- viability, T/C [15]: 118%
- viability, T/C [16]: 119%
- viability, T/C [17]: 34.1%
- viability, T/C [18]: 8.04%
- viability, T/C [19]: 26.6%
- viability, T/C [20]: 31.3%
- viability, T/C [21]: 20.9%
- viability, T/C [22]: 18.9%
- viability, T/C [23]: 3.92%
- viability, T/C [24]: 2.67%
- viability, T/C [25]: 0.16%
- viability, T/C [26]: 0.17%
- viability, T/C [27]: 2.95%
- viability, T/C [28]: 0.09%
- viability, T/C [29]: 3.76%
- viability, T/C [30]: 3.49%
- viability, T/C [31]: 0.1%
- viability, T/C [32]: 0.71%
- viability, T/C [33]: 0.63%
- viability, T/C [34]: 0.09%
- viability, T/C [35]: 1.87%
- viability, T/C [36]: 1.46%
- viability, T/C [37]: 0.08%
- viability, T/C [38]: 0.52%
- viability, T/C [39]: 3.6%
- viability, T/C [40]: 0.17%
- viability, T/C [41]: 0.18%
- viability, T/C [42]: 2.22%

Continued, in another order:

- IC50 [1]: 6930 nM
- IC50 [2]: 698 nM
- IC50 [3]: < 31.6 nM
- IC50 [4]: < 31.6 nM
- IC50 [5]: < 31.6 nM
- IC50 [6]: < 31.6 nM
SMILES: CCCS(=O)(=O)Nc1ccc(F)c(C(=O)c2c[nH]c3ncc(-c4ccc(Cl)cc4)cc23)c1F + CNC(=O)c1ccc(Nc2nc(OC3CCCC3)c3c(-c4ccc5nc(C)oc5c4)c[nH]c3n2)c(OC)c1
- viability, T/C [7]: 94.6%
- viability, T/C [8]: 102%
- viability, T/C [9]: 98.9%
- viability, T/C [10]: 89.9%
- viability, T/C [11]: 93.8%
- viability, T/C [12]: 29.6%
- viability, T/C [13]: 55%
- viability, T/C [14]: 62.2%
- viability, T/C [15]: 44.3%
- viability, T/C [16]: 53.6%
- viability, T/C [17]: 34.6%
- viability, T/C [18]: 13%
- viability, T/C [19]: 42.4%
- viability, T/C [20]: 37.1%
- viability, T/C [21]: 39.7%
- viability, T/C [22]: 41.5%
- viability, T/C [23]: 27%
- viability, T/C [24]: 14.8%
- viability, T/C [25]: 43.8%
- viability, T/C [26]: 38.8%
- viability, T/C [27]: 42.3%
- viability, T/C [28]: 30.9%
- viability, T/C [29]: 27.2%
- viability, T/C [30]: 11.6%
- viability, T/C [31]: 41.4%
- viability, T/C [32]: 44.3%
- viability, T/C [33]: 41.4%
- viability, T/C [34]: 31.6%
- viability, T/C [35]: 22%
- viability, T/C [36]: 10.1%
- viability, T/C [37]: 40.4%
- viability, T/C [38]: 34.4%
- viability, T/C [39]: 38.3%
- viability, T/C [40]: 27.9%
- viability, T/C [41]: 21.4%
- viability, T/C [42]: 8.93%

- IC50 (curve of compound): > 10000 nM
SMILES: CC(CO)NC(=O)c1cc(-c2ccc(Cl)cc2)nn(-c2cnn(C)c2)c1=O (centres undefined)
- viability, T/C (compound 0.0316 µM): 90.7% and 94.5%
- viability, T/C (compound 0.1 µM): 95.2% and 99.6%
- viability, T/C (compound 0.316 µM): 101% and 96%
- viability, T/C (compound 1 µM): 102% and 99.1%
- viability, T/C (compound 3.16 µM): 110% and 95%
- viability, T/C (compound 10 µM): 103% and 106%
